Patent US6537744B1, “Use of biomarkers in saliva to evaluate the toxicity of agents and the function of tissues in both biomedical and environmental applications” (priority 1995, dated 2003)

Test system: carboxylase in human saliva
Assay: Inhibition of carboxylase in human saliva (p-nitrophenylvalerate hydrolysis, 400 nm)
Type: biochemical
Protocol: The carboxylase activity in saliva samples is monitored by the hydrolysis of p-nitrophenylvalerate to the readily detectable p-nitrophenol. The concentration of p-nitrophenol in the sample is measured spectrophotometrically at 400 nm, and the value is calculated from p-nitrophenol standard curve (Table 3 and FIG. 4). Values for carboxylase activity in saliva (nmol. min-1 per mL of saliva) are presented in Tables 4-8 and showing in FIG. 5 and FIG. 6. The average specific activity for carboxylase in human saliva is about 47 nmol min^−1 per mL.
The assay for carboxylase consists of 4 mL of tris-HCl buffer (pH 7.0) that contain 25 μL of p-nitrophenylvalerate (13.8 mg/mL of alcohol) and 50-500 μL of human saliva. […] In the inhibition study, the agent is incubated with saliva for about 15-20 minutes before the addition of p-nitrophenylvalerate. Organophosphate concentration is verified by gas chromatography using standard methods as described by Knaak et al. (1993).

[1] = 1.0 ng/ml, Test #2, 0.2 mL saliva, 15 min preincubation at 37° C., 30 min with substrate
[2] = 2.9 ng/ml, Test #2, 0.2 mL saliva, 15 min preincubation at 37° C., 30 min with substrate
[3] = 8.6 ng/ml, Test #2, 0.2 mL saliva, 15 min preincubation at 37° C., 30 min with substrate
[4] = 26 ng/mL, Test #1, 100 μL saliva, 15 min preincubation at 37° C.
[5] = 52 ng/mL, Test #1, 100 μL saliva, 15 min preincubation at 37° C.
[6] = 78 ng/mL, Test #1, 100 μL saliva, 15 min preincubation at 37° C.
[7] = 156 ng/mL, Test #1, 100 μL saliva, 15 min preincubation at 37° C.
[8] = 312 ng/mL, Test #1, 100 μL saliva, 15 min preincubation at 37° C.
[9] = 625 ng/mL, Test #1, 100 μL saliva, 15 min preincubation at 37° C.
[10] = 175 μg/ml, test #1, 200 μL saliva, 15 min preincubation, 37° C.
[11] = .04 ng/ml, Test #2, 0.2 mL saliva, 15 min preincubation at 37° C., 30 min with substrate
[12] = .1 ng/ml, Test #2, 0.2 mL saliva, 15 min preincubation at 37° C., 30 min with substrate
[13] = .3 ng/ml, Test #2, 0.2 mL saliva, 15 min preincubation at 37° C., 30 min with substrate

SMILES: CCOP(N)(=O)Oc1ccccc1C(=O)OC(C)C (stereo not drawn) [DNIO, des N-Isofenphos-oxon]
- % Activity [1]: 57%
- % Inhibition [1]: 43%
- Absorb. at 400 nm [1]: .46
- nmol/min per mg protein [1]: 7.46 nmol/min per mg protein
- % Activity [2]: 50%
- % Inhibition [2]: 50%
- Absorb. at 400 nm [2]: .40
- nmol/min per mg protein [2]: 6.55 nmol/min per mg protein
- % Activity [3]: 40%
- % Inhibition [3]: 60%
- Absorb. at 400 nm [3]: .32
- nmol/min per mg protein [3]: 5.24 nmol/min per mg protein
- % Activity [4]: 3%
- % Inhibition [4]: 97%
- Absorb. at 400 nm for 20 min. [4]: .02
- Absorb. at 400 nm for 40 min. [4]: .03
- Absorb. at 400 nm for 80 min [4]: .02
- % Activity [5]: 5%
- % Inhibition [5]: 95%
- Absorb. at 400 nm for 20 min. [5]: .03
- Absorb. at 400 nm for 40 min. [5]: .03
- Absorb. at 400 nm for 80 min [5]: .03
- % Activity [6]: 3%
- % Inhibition [6]: 97%
- Absorb. at 400 nm for 20 min. [6]: .02
- Absorb. at 400 nm for 40 min. [6]: .02
- Absorb. at 400 nm for 80 min [6]: .02
- % Activity [7]: 5%
- % Inhibition [7]: 95%
- Absorb. at 400 nm for 20 min. [7]: .02
- Absorb. at 400 nm for 40 min. [7]: .02
- Absorb. at 400 nm for 80 min [7]: .03
- % Activity [8]: 13%
- % Inhibition [8]: 87%
- Absorb. at 400 nm for 20 min. [8]: .04
- Absorb. at 400 nm for 40 min. [8]: .06
- Absorb. at 400 nm for 80 min [8]: .08
- % Activity [9]: 16%
- % Inhibition [9]: 84%
- Absorb. at 400 nm for 20 min. [9]: .05
- Absorb. at 400 nm for 40 min. [9]: .07
- Absorb. at 400 nm for 80 min [9]: .10
- % Act. (5 μg/mL, Test #2, 50 μL saliva, 20 min preincubation): 35%
- % Inhib. [10]: 92%
- Absorb. at 400 nm for 20 min. [10]: .16
- Absorb. at 400 nm for 60 min. [10]: .55
- % Activity [11]: 94%
- % Inhibition [11]: 6%
- Absorb. at 400 nm [11]: .75
- nmol/min per mg protein [11]: 12.31 nmol/min per mg protein
- % Activity [12]: 83%
- % Inhibition [12]: 17%
- Absorb. at 400 nm [12]: .66
- nmol/min per mg protein [12]: 10.87 nmol/min per mg protein
- % Activity [13]: 78%
- % Inhibition [13]: 22%
- Absorb. at 400 nm [13]: .62
- nmol/min per mg protein [13]: 10.21 nmol/min per mg protein
- effective concentration for 50% inhibition EC50 (carboxylase, human saliva): 3 ng/mL
- inhibition of carboxylase (in words) (human saliva): inhibited
